# Laboratory results published in patent publication US20240352466A1, “APTAMER-siRNA FUSIONS” (APTERNA LIMITED, priority 2020, published 2024).
# In the oligonucleotide strings, read from the 5' end, every base follows the letter of its sugar. An asterisk marks phosphorothioate; unmarked linkages are phosphodiester. Other units and linkages are bracketed, terminal groups are in braces. A string of capitals states the bases alone. m = 2'-O-methyl; f = 2'-fluoro
# B1: TfR-SS-saCEBPA: TfR aptamer SEQ ID NO:1 linked through a disulphide linker (SS) to saCEBPa (SEQ ID NO:38+49, 39) (nucleic acid)
# chain 1: UUUAUUCACAUUUUUGAAUUGA
# chain 2: UUUAUUCACAUUUUUGAAUUGA
# chain 3: GACCAGUGACAAUGACCGCUU
# chain 4: GCGGUCAUUGUCACUGGUCUU
# modifications: TfR aptamer attached via disulphide linker, further chemistry not given here
# Tests used:
# CEBPB = assay: qRT-PCR of CEBPB gene expression in PANC-1, Sup-B15 and CCFR-CEM cell lines; format: cell-based, human; conditions: PANC-1, Sup-B15 and CCFR-CEM cells; 400 nM and 800 nM; normalized to GAPDH
# Procedure: (§1) In order to evaluate the effects of TfR aptamer-small RNAs, experiments were performed in PANC-1, Sup-B15 and CCFR-CEM cell lines.
# (§2) The TfR-SS-siCEBPB construct as described in Example 1 was selected for these experiments. A TfR aptamer (SEQ ID NO:1) fused via a disulphide bridge (SS) to siRNA for MALATI (TfR-MALATI siR) was generated as a negative control for siCEBPB activity. The siCEBPB (SEQ ID NO:9) without a TfR aptamer delivery system was also included for comparative purposes.
# (§3) Cells were seeded in plates on Day 0, and the first transfection of TfR aptamer-small RNAs was performed on day 1. The second transfection of TfR aptamer-small RNAs was performed on day 2. Sampling was performed on day 3. Total RNA extraction was performed on samples prior to qRT-PCR quantification of GAPDH, CEBPA, CEBPB, and p21 gene expression. Expression was normalized to GAPDH.
# (§4) Transfections were performed at 400 nM and 800 nM concentrations.
# p21 = assay: qRT-PCR of p21 gene expression in PANC-1, Sup-B15 and CCFR-CEM cell lines; format: cell-based, human; conditions: PANC-1, Sup-B15 and CCFR-CEM cells; 400 nM and 800 nM; normalized to GAPDH
# Procedure: as §1, §2, §3, §4
# CEBPA = assay: qRT-PCR of CEBPA gene expression in PANC-1, Sup-B15 and CCFR-CEM cell lines; format: cell-based, human; conditions: PANC-1, Sup-B15 and CCFR-CEM cells; 400 nM and 800 nM; normalized to GAPDH
# Procedure: as §1, §2, §3, §4
# CEBPB mRNA [1] = assay: CEBPB mRNA expression in primary mouse hepatocytes exposed to TfR-SS-(h/m) siCEBPb; format: cell-based
# Description: The human siCEBPbeta sequence was aligned with chromosome 3 of the mouse genome (Accession NC_0344592.1), in which the CEBPbeta gene is located, using Basic Local Alignment Search Tool (BLAST, https://blast.ncbi.nlm.nih.gov). […] To make a human/mouse cross-reactive siRNA, this sequence was substituted in the sense (G to A) and antisense (C to U) strands. The sense and antisense strands of this human/mouse crossreactive (h/m) siCEBPb correspond to SEQ ID NOs: 15 and 16 respectively. TfR-SS-MALATI siRNA was included as an siRNA effector control.
# Primary mouse hepatocytes were exposed to TfR-SS-MALATI (100 nM, 500 nM and 1000 nM) or TfR-SS-(h/m) siCEBPb (100 nM, 500 nM and 1000 nM), or were untreated, and the effects on CEBPB mRNA expression determined as outlined previously.
# CEBPB mRNA [2] = assay: CEBPB mRNA transcripts (qPCR) in BNL-ME mouse cells transfected with naked and ESC siRNAs; format: cell-based; conditions: 1, 5 and 10 nM + L3K, lysed after 48 hrs, vs untreated cells
# Procedure: The activity of naked and ESC siRNAs was investigated in mouse BNL hepatocyte cells.
# BNL-ME mouse cells were seeded at a density of approximately 20,000 cells per well. The following siRNAs were tested: (m) siCEBPB (Ambion) (SEQ ID NOs: 11, 51 and 12, 52), (m) siCEBPB (Ambs63860) (ESC) (SEQ ID NOs: 17, 18), (h/m) siCEBPB (SEQ ID NOs: 7 and 8), (h/m) siCEBPB ESC (SEQ ID NOs: 15 and 16), (h) siCEBPB (AP6143-6145) (SEQ ID NOs: 9 and 10), (r) siCEBPB (Hao) (SEQ ID NOs: 13 and 14). Test siRNAs were transfected at concentrations of 1, 5 and 10 nM in the presence of Lipofectamine™ 3000 (L3K). Control treatments (untreated, mock L3K treatment, and siFLUC at 1, 5 and 10 nM) were also performed. The media was changed 24 hours following transfection, and cells lysed after 48 hrs. CEBPB mRNA transcript were quantified through qPCR.
# [3] = system: pancreatic cancer with liver metastasis; assay: Combination of TfR-siCEBPb with PD-1 inhibitor pembrolizumab in mouse model of pancreatic cancer with liver metastasis; format: in vivo
# Description: The combinatorial anti-tumour effects of TfR-siCEBPb and PD-1 inhibitor pembrolizumab were investigated in the mouse model of pancreatic cancer with liver metastasis. The TfR-siCEBPb (ESC) and TfR-siFLUC sequences from Example 5 were used in this study.
# The treatment groups were as follows:
# Fourteen days prior to the first dose, mice underwent tumour challenge. The day prior to, and 21 days following the first dose, mice underwent bioluminescence tumour imaging (BTL).
# PANC-Luc cells = assay: TfR-siCEBPb in mouse model of pancreatic cancer with liver metastasis; format: in vivo; conditions: NOD/SCID mice, 15 mg/kg subcutaneous; for increase in photon count (BTL) relative to PBS and TfR-Fluc controls: after 3 weeks
# Procedure: The anti-tumour effects of TfR-siCEBPb was investigated in a mouse model of pancreatic cancer with liver metastasis
# Treatment group 1 was administered PBS as a negative control. Treatment group 2 was a TfR-siFLUC construct (SEQ ID NO:32, conjugated to SEQ ID NO:1), as described previously. Treatment groups 3 and 4 was administered ESC modified siCEBPb sequences from Example 4 linked to TfR aptamer SEQ ID NO: 40, an ESC-modified version of the TfR aptamer laid out in SEQ ID NO:1, via a disulphide bridge as described previously. Group 3 is treated with a ribonucleic acid comprising the human-mouse cross reactive siCEBPb described previously, whilst Group 4 is treated with a ribonucleic acid comprising a mouse siCEBPb. These ribonucleic acids correspond to TFR-SS-siCEBPb seq 1 (SEQ ID NO: 41+50) and TfR-SS-siCEBPb seq 2 (SEQ ID NO:34 and 47) respectively.
# Each group consisted of five 6-week-old NOD/SCID mice. Three additional mice were included for baseline.
# Fourteen days prior to the first dose, mice underwent tumour challenge by performing intrahepatic tumor implantation by injecting […] of a monocellular suspension (in PBS) containing 1×10^6 PANC-Luc cells into a region in the middle lobe of the livers of 6-week-old female NOD/SCID. The day prior to the first dose, mice underwent bioluminescence tumour imaging (BTL) and were weighed to set the week 0 baseline.
# Doses were administered as a 100 μL injection on injection days as outlined in Table 2.
# At day 21 (week 3), BTL and body weight were recorded, and blood samples were taken, along with pathological sections of pancreas, tumour and liver for study and cryopreservation. The schema of the experiments is shown as FIG. 6.
# CEBPA mRNA = CEBPA mRNA levels in Panc1 cells after TfR aptamer-saCEBPA constructs, active (L2K) and passive delivery; format: cell-based, human; conditions: for CEBPA mRNA levels: passive delivery
# Description: In order to test whether cleavable […] bridge (SS) linkers improved TfR aptamer delivery of small RNA, a series of constructs were made by fusing the 22nt TfR binding aptamer (SEQ ID NO:1) to: i. a CEBPalpha small activating RNA (saCEBPa, SEQ ID NO:24) ii. CEBPbeta small interfering RNA (siCEBPb, SEQ ID NO:9), or iii. siTTR (SEQ ID NO:28).
# For the saCEBPa and […] constructs, variants were produced where the aptamer and small RNAs were linked through a disulphide linker (SS).
# In order to compare the effects of the SS linker on active and passive delivery, constructs were applied to cells in the presence and absence of transfection agent Lipofectamine™ 2000 (L2K, ThermoFisher Scientific).
# The effects of the constructs on CEBPA and B mRNA were measured in Panc1 (human pancreatic cancer cell line) cells. Cells were seeded at a density of approximately 50,000 per well in a 24 well plate, in antibiotic free media with no trypsin (Accutase®). Constructs were applied to cells at 10, 500 or 1000 nM concentration, and mRNA levels measured after incubation for 72 hrs.
molecule,measurement,setting,value
"siCEBPbeta: human CEBPB siRNA (SEQ ID NOs: 9 and 10) without a TfR aptamer delivery system (chain 1 CUGAGUAAUCGCUUAAAGAUU; chain 2 UCUUUAAGCGAUUACUCAGUU; listed as RNA, chemistry not given here)",CEBPbeta gene expression,CEBPB,no statistically significant change
same,p21 gene expression,p21,no statistically significant change
same,C/EBPA gene expression,CEBPA,no statistically significant change
"TfR-SS-(h/m) siCEBPb: TfR aptamer linked via SS to human/mouse crossreactive siCEBPb (SEQ ID NOs: 15 and 16) (chain 1 fCmUfGmAfGmUfAfAfUmCfAmCfUmUfAmAfAmGfA*mU*mU; chain 2 mU*fCmU*fUmUfAmAfGmUfGmAmUmUfAmCfUmCfAmG*mU*mU; TfR aptamer attached via disulphide linker, attachment site not given here)",relative CEBPB mRNA expression,CEBPB mRNA [1]; 100 nM,reduced slightly
same,relative CEBPB mRNA expression,CEBPB mRNA [1]; 500 nM,strongest effect
same,relative CEBPB mRNA expression,CEBPB mRNA [1]; 1000 nM,more pronounced
"(h/m) siCEBPB: human/mouse cross reactive naked CEBPB siRNA (AP6143), SEQ ID NOs: 7 and 8 (chain 1 CUGAGUAAUCACUUAAAGAUU; chain 2 UCUUUAAGUGAUUACUCAGUU; unmodified RNA)",CEBPB mRNA expression,CEBPB mRNA [2],below half that of the untreated cells
pembrolizumab: PD-1 inhibitor pembrolizumab [reference compound],tumour volume compared to PBS-treated controls,"[3]; week 3, pembrolizumab 0.25 mg/kg, TfR constructs 10 mg/kg",smaller tumour volumes
TfR-SS-(m) siCEBPb ESC seq 1: ESC modified mouse siCEBPb linked to TfR aptamer SEQ ID NO:40 via a disulphide bridge (SEQ ID NO: 41+50) (chain 1 UUUAUUCACAUUUUUGAAUUGA; chain 2 GCACCCUGCGGAACUUGUUUU; ESC modified; disulphide linker; modified_base 1 OTHER; 2-Prime-fluoro uracil; modified_base 2 OTHER; modified_base 3 OTHER; modified_base 5 OTHER; modified_base 6 OTHER; modified_base 7 OTHER; 2-Prime-fluoro cytosine; modified_base 9 OTHER; modified_base 11 OTHER; modified_base 12 OTHER; 2-P; 2-Prime-fluoro guanine; 2-Prime-O-methyl cytosine; 2-Prime-fluoro adenine; modified_base 4 OTHER; mo),increase in photon count (BTL) relative to PBS and TfR-Fluc controls,PANC-Luc cells,lower
same,tumour burden relative to controls,PANC-Luc cells; week 3,ability to reduce tumour burden
same,tumour volume,PANC-Luc cells; week 3,Slightly lower
same,tumour weight,PANC-Luc cells; week 3,Slightly lower
"TfR-SS-(h/m) siCEBPb ESC seq 2: ESC modified human-mouse cross reactive siCEBPb linked to TfR aptamer SEQ ID NO:40 via a disulphide bridge (SEQ ID NO: 34 and 47) (chain 1 UUUAUUCACAUUUUUGAAUUGA; chain 2 CUGAGUAAUCGCUUAAAGAUU; chain 1: 2'-fluoro at CU, RNA at AG, backbone not given here; chain 2: chemistry not given here; further chemistry not fully specified)",effect on animal weight,[3]; in combination with pembrolizumab,no effect on animal weight
same,body weight at 3 weeks relative to week 0,PANC-Luc cells,body weight gain
same,increase in photon count (BTL) relative to PBS and TfR-Fluc controls,PANC-Luc cells,lower
same,"effects on IVIS, body weight, tumour volume and weight, seq 2 compared with seq-1",PANC-Luc cells; week 3,more pronounced
same,tumour burden relative to controls,PANC-Luc cells; week 3,ability to reduce tumour burden
same,tumour volume,PANC-Luc cells; week 3,statistically significant lower
same,tumour weight,PANC-Luc cells; week 3,statistically significant lower
B1,relative expression of CEBPA mRNA,"CEBPA mRNA; 10 nM + L2K (active delivery), 72 hrs, vs untreated samples",within 1 standard deviation of untreated samples
same,CEBPA mRNA levels,"CEBPA mRNA; 500 nM and 1000 nM, 72 hrs",lower
same,CEBPA mRNA levels,"CEBPA mRNA; 1000 nM, vs control",within one standard deviation of the control
